From PubChem BioAssay AID2060622 (Molecular Pharmacology Branch, DTP, NCI, 2025)

System: 242566-281-R-J2-PDC complex spheroid viability
Test: Anticancer human tumor 242566-281-R-J2-PDC patient-derived pancreatic carcinoma cell line growth inhibition [CLK]
Conditions: for IC50: curve of first compound; for viability, T/C: stronger effect = lower value
Procedure, shortened: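 Multi-cell-type spheroids combined patient-derived tumor cells with HUVEC endothelial cells and human mesenchymal stem cells. Paired agents were dosed in half-log steps down from about clinical Cmax, or from 10 microM where Cmax was unknown.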
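Also: spheroids exposed to compounds for 7 days before readout.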
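For viability, T/C in this document: 100% = DMSO vehicle control wells.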

For `NC(=O)C(=Cn1cnc(-c2cc(C(F)(F)F)cc(C(F)(F)F)c2)n1)c1cncnc1` + CNC(=O)c1ccc(Nc2nc(OC3CCCC3)c3c(-c4ccc5nc(C)oc5c4)c[nH]c3n2)c(OC)c1, the IC50 (second compound 0.0316 µM) was > 3 µM, the IC50 (second compound 0.1 µM) was > 3 µM and the IC50 (second compound 0.316 µM) was 1.98 µM. The IC50 (second compound 1 µM) was 0.758 µM, the IC50 (second compound 3.16 µM) was 0.409 µM and the IC50 (second compound 10 µM) was 0.308 µM. The viability, T/C (second compound 0.0316 µM, first compound 0.00949 µM) was 119%, the viability, T/C (second compound 0.0316 µM, first compound 0.03 µM) was 129% and the viability, T/C (second compound 0.0316 µM, first compound 0.0949 µM) was 128%. For the same compound, the viability, T/C (second compound 0.0316 µM, first compound 0.3 µM) was 141%, the viability, T/C (second compound 0.0316 µM, first compound 0.949 µM) was 109% and the viability, T/C (second compound 0.0316 µM, first compound 3 µM) was 57.1%. It also gave a viability, T/C (second compound 0.1 µM, first compound 0.00949 µM) of 109%, a viability, T/C (second compound 0.1 µM, first compound 0.03 µM) of 125% and a viability, T/C (second compound 0.1 µM, first compound 0.0949 µM) of 130%. For the same compound, the viability, T/C (second compound 0.1 µM, first compound 0.3 µM) was 129%, the viability, T/C (second compound 0.1 µM, first compound 0.949 µM) was 98% and the viability, T/C (second compound 0.1 µM, first compound 3 µM) was 51.1%. The viability, T/C (second compound 0.316 µM, first compound 0.00949 µM) was 106%, the viability, T/C (second compound 0.316 µM, first compound 0.03 µM) was 91.5% and the viability, T/C (second compound 0.316 µM, first compound 0.0949 µM) was 117%. It also gave a viability, T/C (second compound 0.316 µM, first compound 0.3 µM) of 122%, a viability, T/C (second compound 0.316 µM, first compound 0.949 µM) of 69.1% and a viability, T/C (second compound 0.316 µM, first compound 3 µM) of 39.2%. The viability, T/C (second compound 1 µM, first compound 0.00949 µM) was 87.2%, the viability, T/C (second compound 1 µM, first compound 0.03 µM) was 99.1% and the viability, T/C (second compound 1 µM, first compound 0.0949 µM) was 87.2%. The viability, T/C (second compound 1 µM, first compound 0.3 µM) was 86.4%, the viability, T/C (second compound 1 µM, first compound 0.949 µM) was 41.2% and the viability, T/C (second compound 1 µM, first compound 3 µM) was 12.4%. The viability, T/C (second compound 3.16 µM, first compound 0.00949 µM) was 77.4%, the viability, T/C (second compound 3.16 µM, first compound 0.03 µM) was 82.6% and the viability, T/C (second compound 3.16 µM, first compound 0.0949 µM) was 78.3%. For the same compound, the viability, T/C (second compound 3.16 µM, first compound 0.3 µM) was 57.9%, the viability, T/C (second compound 3.16 µM, first compound 0.949 µM) was 25.8% and the viability, T/C (second compound 3.16 µM, first compound 3 µM) was 5.98%. The viability, T/C (second compound 10 µM, first compound 0.00949 µM) was 72.5%, the viability, T/C (second compound 10 µM, first compound 0.03 µM) was 70.6% and the viability, T/C (second compound 10 µM, first compound 0.0949 µM) was 71.8%. For the same compound, the viability, T/C (second compound 10 µM, first compound 0.3 µM) was 49.8%, the viability, T/C (second compound 10 µM, first compound 0.949 µM) was 17.3% and the viability, T/C (second compound 10 µM, first compound 3 µM) was 4.4%.
For `Nc1ccccc1NC(=O)c1ccc(CNC(=O)OCc2cccnc2)cc1` + CNC(=O)c1ccc(Nc2nc(OC3CCCC3)c3c(-c4ccc5nc(C)oc5c4)c[nH]c3n2)c(OC)c1, the IC50 (second compound 0.0316 µM) was 7.7 µM, the IC50 (second compound 0.1 µM) was 7.54 µM and the IC50 (second compound 0.316 µM) was 5.8 µM. The IC50 (second compound 1 µM) was 2.7 µM, the IC50 (second compound 3.16 µM) was 1.67 µM and the IC50 (second compound 10 µM) was < 0.0316 µM. For the same compound, the viability, T/C (second compound 0.0316 µM, first compound 0.0316 µM) was 86.9%, the viability, T/C (second compound 0.0316 µM, first compound 0.1 µM) was 101% and the viability, T/C (second compound 0.0316 µM, first compound 0.316 µM) was 101%. For the same compound, the viability, T/C (second compound 0.0316 µM, first compound 1 µM) was 149%, the viability, T/C (second compound 0.0316 µM, first compound 3.16 µM) was 116% and the viability, T/C (second compound 0.0316 µM, first compound 10 µM) was 32.2%. The viability, T/C (second compound 0.1 µM, first compound 0.0316 µM) was 81.1%, the viability, T/C (second compound 0.1 µM, first compound 0.1 µM) was 104% and the viability, T/C (second compound 0.1 µM, first compound 0.316 µM) was 103%. For the same compound, the viability, T/C (second compound 0.1 µM, first compound 1 µM) was 128%, the viability, T/C (second compound 0.1 µM, first compound 3.16 µM) was 109% and the viability, T/C (second compound 0.1 µM, first compound 10 µM) was 32.1%. The viability, T/C (second compound 0.316 µM, first compound 0.0316 µM) was 89.6%, the viability, T/C (second compound 0.316 µM, first compound 0.1 µM) was 78% and the viability, T/C (second compound 0.316 µM, first compound 0.316 µM) was 85.6%. It also gave a viability, T/C (second compound 0.316 µM, first compound 1 µM) of 94.7%, a viability, T/C (second compound 0.316 µM, first compound 3.16 µM) of 80.8% and a viability, T/C (second compound 0.316 µM, first compound 10 µM) of 22.2%. It also gave a viability, T/C (second compound 1 µM, first compound 0.0316 µM) of 75.7%, a viability, T/C (second compound 1 µM, first compound 0.1 µM) of 70.2% and a viability, T/C (second compound 1 µM, first compound 0.316 µM) of 61.8%. For the same compound, the viability, T/C (second compound 1 µM, first compound 1 µM) was 73.4%, the viability, T/C (second compound 1 µM, first compound 3.16 µM) was 46.8% and the viability, T/C (second compound 1 µM, first compound 10 µM) was 14%. For the same compound, the viability, T/C (second compound 3.16 µM, first compound 0.0316 µM) was 60.4%, the viability, T/C (second compound 3.16 µM, first compound 0.1 µM) was 52.9% and the viability, T/C (second compound 3.16 µM, first compound 0.316 µM) was 52.5%. The viability, T/C (second compound 3.16 µM, first compound 1 µM) was 63.9%, the viability, T/C (second compound 3.16 µM, first compound 3.16 µM) was 40.5% and the viability, T/C (second compound 3.16 µM, first compound 10 µM) was 10.3%. It also gave a viability, T/C (second compound 10 µM, first compound 0.0316 µM) of 50%, a viability, T/C (second compound 10 µM, first compound 0.1 µM) of 44.4% and a viability, T/C (second compound 10 µM, first compound 0.316 µM) of 48.6%. It also gave a viability, T/C (second compound 10 µM, first compound 1 µM) of 54%, a viability, T/C (second compound 10 µM, first compound 3.16 µM) of 37.6% and a viability, T/C (second compound 10 µM, first compound 10 µM) of 7.66%.
